These results are taken from patent US20100204128A1, “NOVEL PEPTIDES” (SANARE INVESTMENT AS, priority 2007, published 2010).

Values joined by “and” are separate entries in the source; they are usually repeats but may differ in a detail not shown here. Identical values can stand only once.

Common to all, as to type: cell-based
Common to all, as to details: 24 hours, duplicate wells

The test system of one assay is TMX2-28 cells. The assay is described as follows: AlmarBlue fluorescence cell growth test, TMX2-28 cells. As to the method: With that, the 5×10^−3M mixture contains about 0.42×10^−3M of each peptide. Furthermore, mixtures containing equal volumes of peptides SEQ ID NO:2-SEQ ID NO:7, SEQ ID NO:10 and SEQ ID NO:11 were also prepared (equal volumes of said re-feed media) to yield the following final six concentrations: […] With that, the 5×10^−3M mixture contains about […].
(§1) MCF-7 and T47D cells were seeded into 96-well plates at a density of 10,000 cells per well in 90 μL of appropriate culture medium. TMX2-28 cells were seeded into 96-well plates at a density of 5,000 cells per well in 90 μL of appropriate culture medium. Plates were placed in a 37° C., 5% CO2 incubator and cells were allowed to attach to the bottom of the well for 24 hours after which 10 μL of the appropriate refeed medium was added. Each concentration was tested in duplicate in each cell line. […] Cells were then incubated for 24 hours. Subsequently 10 μL of AlmarBlue (Biosource) was added to each well. After three hours, the fluorescence was detected using a Packard Instrument Plate Reader with 535/20 excitation and 590/20 emission filters.

In a further assay the test system is MCF-7 cells. The assay is described as follows: AlmarBlue fluorescence cell growth test, MCF-7 cells. How it is done:
(§2) Re-feed media were prepared to yield the following final six concentrations of each of the 12 peptides: 5×10^−3, 5×10^−4, 5×10^−5, 5×10^−6, 5×10^−7, and 5×10^−8M. […] With that, the 5×10^−3M mixture contains about 0.42×10^−3M of each peptide. […] With that, the 5×10^−3M mixture contains about 0.42×10^−3M of each of said 8 peptides.
as §1

In a further assay the test system is T47D cells. As to the kind of experiment: AlmarBlue fluorescence cell growth test, T47D cells. How it is done:
as §2, §1

[1] abbreviates: 5 × 10^−4 M (mixtures: total concentration), decrease vs DC5 = reduced cell growth.
[2] abbreviates: 5 × 10^−5 M (mixtures: total concentration).
Setting [3] is: 5 × 10^−6 M (mixtures: total concentration).
Setting [4] is: 5 × 10^−7 M (mixtures: total concentration).
Where [5] appears, read: 5 × 10^−8 M (mixtures: total concentration).
Setting [6] is: 5 × 10^−9 M (mixtures: total concentration).

As to “SEQIDNO7: synthesised peptide identified in the 10 kDa blood fraction after acupuncture; sequence not printed in the text (RMSIQCDVWRSKFLASRV; Derived from human blood sample)”, the fluorescent readings is 58887 and 60090 in the assay with TMX2-28 cells (setting [1]); 64931 and 66366 in the assay with TMX2-28 cells (setting [2]); 68010 and 67591 in the assay on TMX2-28 cells (setting [3]); 68325 and 70586 in the assay on TMX2-28 cells (setting [4]); 67109 and 70471 in the assay on TMX2-28 cells (setting [5]); 62010 and 66328 in the assay on TMX2-28 cells (setting [6]). The fluorescent readings was 64171 and 62704 in the assay on MCF-7 cells (setting [1]); 67257 and 64433 with MCF-7 cells (setting [2]); 66311 and 66105 in the assay on MCF-7 cells (setting [3]); 63995 and 67019 in the assay with MCF-7 cells (setting [4]); 65755 and 66292 in the assay with MCF-7 cells (setting [5]); 60589 and 62763 in the assay with MCF-7 cells (setting [6]). Further, the fluorescent readings in the assay with T47D cells (setting [1]) was 62688 and 60767; with T47D cells (setting [2]), 68041 and 64777; in the assay on T47D cells (setting [3]), 66479 and 60908; in the assay on T47D cells (setting [4]), 65388 and 63864; in the assay with T47D cells (setting [5]) it was 64353 and 63685; with T47D cells (setting [6]) it was 64124 and 63134.

In the case of “SEQIDNO8: synthesised peptide identified in the 10 kDa blood fraction after acupuncture; sequence not printed in the text (GVLLVRAPPACLQVLR; Derived from human blood sample)”, the fluorescent readings in the assay on TMX2-28 cells (setting [1]) is 63114 and 65457; with TMX2-28 cells (setting [2]), 67475 and 69324; in the assay with TMX2-28 cells (setting [3]), 68833 and 70414; in the assay with TMX2-28 cells (setting [4]) it was 70559 and 72074; with TMX2-28 cells (setting [5]), 70603 and 73593; in the assay on TMX2-28 cells (setting [6]), 68676 and 68864. The fluorescent readings in the assay with MCF-7 cells (setting [1]) is 64002 and 64485; in the assay with MCF-7 cells (setting [2]) it was 68720 and 70447; in the assay on MCF-7 cells (setting [3]), 69897 and 70376; in the assay with MCF-7 cells (setting [4]), 68985 and 70404; with MCF-7 cells (setting [5]) it was 68423 and 68263; with MCF-7 cells (setting [6]), 61653 and 66015. In addition, the fluorescent readings was 62688 and 60767 in the assay on T47D cells (setting [1]); 68041 and 64777 in the assay on T47D cells (setting [2]); 66479 and 60908 with T47D cells (setting [3]); 65388 and 63864 in the assay on T47D cells (setting [4]); 64353 and 63685 in the assay with T47D cells (setting [5]); 64124 and 63134 with T47D cells (setting [6]).

Consider “SEQIDNO9: synthesised peptide identified in the 10 kDa blood fraction after acupuncture; sequence not printed in the text (SSNNGCMRDPTLYRCK; Derived from human blood sample)”, for which the fluorescent readings with TMX2-28 cells (setting [1]) was 71608 and 70176; with TMX2-28 cells (setting [2]), 69255 and 69328; in the assay on TMX2-28 cells (setting [3]), 69234 and 68280; in the assay on TMX2-28 cells (setting [4]) it was 67663 and 69155; with TMX2-28 cells (setting [5]), 67229 and 67807; in the assay with TMX2-28 cells (setting [6]) it was 68009 and 65131. Besides, the fluorescent readings was 67879 and 68176 in the assay on MCF-7 cells (setting [1]); 65563 and 69218 in the assay with MCF-7 cells (setting [2]); 65046 and 65931 with MCF-7 cells (setting [3]); 63071 and 65962 in the assay with MCF-7 cells (setting [4]); 57728 and 62231 with MCF-7 cells (setting [5]); 62556 and 61065 with MCF-7 cells (setting [6]). For the same substance, the fluorescent readings was 67492 and 77427 in the assay on T47D cells (setting [1]); 63181 and 64535 with T47D cells (setting [2]); 62848 and 62359 in the assay with T47D cells (setting [3]); 63130 and 68689 with T47D cells (setting [4]); 60146 and 64467 in the assay with T47D cells (setting [5]); 65094 and 67070 in the assay on T47D cells (setting [6]).

With “SEQIDNO10: synthesised peptide identified in the 10 kDa blood fraction after acupuncture; sequence not printed in the text (GGVLSPADKTNVK; Derived from human blood sample)”, the fluorescent readings is 74950 and 67668 in the assay on TMX2-28 cells (setting [1]); 70143 and 70096 in the assay with TMX2-28 cells (setting [2]); 68926 and 71006 with TMX2-28 cells (setting [3]); 68674 and 69541 with TMX2-28 cells (setting [4]); 67904 and 70174 in the assay with TMX2-28 cells (setting [5]); 64358 and 65678 with TMX2-28 cells (setting [6]). Moreover, the fluorescent readings is 66888 and 71581 with MCF-7 cells (setting [1]); 67041 and 68134 in the assay with MCF-7 cells (setting [2]); 68442 and 69458 with MCF-7 cells (setting [3]); 67343 and 65315 with MCF-7 cells (setting [4]); 62238 and 64184 in the assay with MCF-7 cells (setting [5]); 62410 and 63264 in the assay on MCF-7 cells (setting [6]). Further, the fluorescent readings in the assay on T47D cells (setting [1]) is 58905 and 62040; with T47D cells (setting [2]), 62235 and 61799; in the assay on T47D cells (setting [3]), 61232 and 61422; in the assay with T47D cells (setting [4]), 61576 and 62488; in the assay on T47D cells (setting [5]), 62058 and 61865; with T47D cells (setting [6]), 63213 and 64672.

For “SEQIDNO11: synthesised peptide identified in the 10 kDa blood fraction after acupuncture; sequence not printed in the text (TLAGENQTALEIEELNRK; Derived from human blood sample)”, the fluorescent readings with TMX2-28 cells (setting [1]) is 66600 and 67446; in the assay with TMX2-28 cells (setting [2]), 67045 and 66528; in the assay with TMX2-28 cells (setting [3]), 66568 and 64759; with TMX2-28 cells (setting [4]) it was 64371 and 65373; with TMX2-28 cells (setting [5]) it was 65587 and 66707; in the assay on TMX2-28 cells (setting [6]) it was 64433 and 65703. In addition, the fluorescent readings with MCF-7 cells (setting [1]) is 65114 and 72373; with MCF-7 cells (setting [2]) it was 65947 and 68983; in the assay with MCF-7 cells (setting [3]), 64058 and 64030; in the assay on MCF-7 cells (setting [4]) it was 63837 and 64861; in the assay with MCF-7 cells (setting [5]) it was 60430 and 65118; with MCF-7 cells (setting [6]), 60886 and 63795. Further, the fluorescent readings was 61976 and 62453 in the assay with T47D cells (setting [1]); 61546 and 64267 in the assay with T47D cells (setting [2]); 62448 and 60200 with T47D cells (setting [3]); 62557 and 63900 in the assay on T47D cells (setting [4]); 62018 and 64649 in the assay on T47D cells (setting [5]); 63935 and 65696 with T47D cells (setting [6]).

As to “SEQIDNO12: synthesised peptide identified in the 10 kDa blood fraction after acupuncture; sequence not printed in the text (PVLTLDMPSSERGK; Derived from human blood sample)”, the fluorescent readings with TMX2-28 cells (setting [1]) is 64801 and 66313; with TMX2-28 cells (setting [2]), 67335 and 67800; in the assay with TMX2-28 cells (setting [3]), 69868 and 69586; in the assay on TMX2-28 cells (setting [4]), 67062 and 68845; with TMX2-28 cells (setting [5]) it was 68382 and 67167; in the assay on TMX2-28 cells (setting [6]), 66458 and 66191. Moreover, the fluorescent readings in the assay on MCF-7 cells (setting [1]) is 64634 and 66223; in the assay with MCF-7 cells (setting [2]) it was 67452 and 68292; with MCF-7 cells (setting [3]), 67604 and 67923; in the assay on MCF-7 cells (setting [4]) it was 65967 and 68650; with MCF-7 cells (setting [5]) it was 64530 and 64993; with MCF-7 cells (setting [6]), 59810 and 61717. Moreover, the fluorescent readings in the assay on T47D cells (setting [1]) was 57184 and 62215; with T47D cells (setting [2]), 62230 and 62786; in the assay on T47D cells (setting [3]), 64065 and 63826; in the assay with T47D cells (setting [4]), 64023 and 65295; in the assay on T47D cells (setting [5]) it was 65019 and 65289; with T47D cells (setting [6]), 62179 and 65227.
